# Data reported in patent US10137122B2, “Kinase inhibitors and methods of use thereof” (priority 2012, dated 2018).
# pEC50, pIC50: −log10 of the molar value.
# Experiments:
# PKR = PKR (Homo sapiens (Human), UniProt P19525); assay: Single point inhibition at 10 μM (Carna), PKR; assay type: biochemical
# Experimental: (§1) Single Point Inhibitory Analysis of Selected Compounds (Carna Biosciences)
# (§2) Briefly, a selection of compounds was screened against a panel of kinases at a single concentration of 10 μM. […] This was completed utilizing one of two assays depending on the kinase being examined.
# (§3) Test compounds were dissolved in and diluted with dimethylsulfoxide (DMSO) to generate a 100× sample solution. These were then diluted to 4× sample solutions in assay buffer to make the final test compound solutions. Reference compounds for assay control were prepared similarly.
# (§4) A solution of IMAP binding reagent (IMAP Screening Express kit; Molecular Devices) (60 μL) was added to each well and incubated for 30 minutes.
# (§5) A solution of termination buffer (QuickScout Screening assist MSA; Carna Biosciences) (60 μL) was added to each well. The entire reaction mixture was then applied to a LabChip3000 system (Caliper Life Science) and the product and substrate peptide peaks were separated and quantified.
# CLK1 = CLK1 (Homo sapiens (Human), UniProt P49759); assay: Single point inhibition at 10 μM (kinase screen), CLK1; assay type: biochemical
# Experimental: as §2, §3, §4, §5
# PLK1 = PLK1 (Homo sapiens (Human), UniProt P53350); assay: Single point inhibition at 10 μM (Carna), PLK1; assay type: biochemical
# Sequence of PLK1 (P53350 whole entry): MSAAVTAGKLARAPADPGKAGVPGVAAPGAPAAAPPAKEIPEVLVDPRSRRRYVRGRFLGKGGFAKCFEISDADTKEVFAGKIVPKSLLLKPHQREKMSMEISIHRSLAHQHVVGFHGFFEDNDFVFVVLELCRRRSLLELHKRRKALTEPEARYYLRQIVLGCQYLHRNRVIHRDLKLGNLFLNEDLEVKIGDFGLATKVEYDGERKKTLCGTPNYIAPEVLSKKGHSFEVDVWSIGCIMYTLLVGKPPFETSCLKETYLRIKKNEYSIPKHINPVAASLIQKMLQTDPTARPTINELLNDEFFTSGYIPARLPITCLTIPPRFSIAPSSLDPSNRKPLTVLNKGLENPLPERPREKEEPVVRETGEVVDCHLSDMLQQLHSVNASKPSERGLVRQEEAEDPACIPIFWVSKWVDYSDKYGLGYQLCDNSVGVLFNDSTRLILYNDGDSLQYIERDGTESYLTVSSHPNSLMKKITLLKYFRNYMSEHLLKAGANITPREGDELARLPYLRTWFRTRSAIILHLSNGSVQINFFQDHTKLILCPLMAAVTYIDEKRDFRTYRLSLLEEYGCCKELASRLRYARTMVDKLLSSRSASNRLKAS
# Experimental: as §1, §2, §3, §4, §5
# [1] = M (mouse)
# [2] = tested on: phospho-Tau (Ser199) in SH-SY5Y cells; assay: Tau phosphorylation assay (phospho-Tau Ser199 ELISA); assay type: cell-based, human; settings: Homo sapiens, read-out: Phospho-Tau ELISA in SHSY5Y Cells (IC50)
# CDK2/CycA2 = CDK2/CycA2 (Homo sapiens (Human), UniProt P24941); assay: Single point inhibition at 10 μM (Carna), CDK2/CycA2; assay type: biochemical
# Experimental: as §2, §3, §4, §5
# RSK3 = RSK3 (Homo sapiens (Human), UniProt Q15349); assay: Single point inhibition at 10 μM (Carna), RSK3; assay type: biochemical
# Experimental: as §1, §2, §3, §4, §5
# Erk5 = Erk5 (Homo sapiens (Human), UniProt Q13164); assay: Single point inhibition at 10 μM (Carna), Erk5; assay type: biochemical
# Sequence of Erk5 (Q13164 whole entry): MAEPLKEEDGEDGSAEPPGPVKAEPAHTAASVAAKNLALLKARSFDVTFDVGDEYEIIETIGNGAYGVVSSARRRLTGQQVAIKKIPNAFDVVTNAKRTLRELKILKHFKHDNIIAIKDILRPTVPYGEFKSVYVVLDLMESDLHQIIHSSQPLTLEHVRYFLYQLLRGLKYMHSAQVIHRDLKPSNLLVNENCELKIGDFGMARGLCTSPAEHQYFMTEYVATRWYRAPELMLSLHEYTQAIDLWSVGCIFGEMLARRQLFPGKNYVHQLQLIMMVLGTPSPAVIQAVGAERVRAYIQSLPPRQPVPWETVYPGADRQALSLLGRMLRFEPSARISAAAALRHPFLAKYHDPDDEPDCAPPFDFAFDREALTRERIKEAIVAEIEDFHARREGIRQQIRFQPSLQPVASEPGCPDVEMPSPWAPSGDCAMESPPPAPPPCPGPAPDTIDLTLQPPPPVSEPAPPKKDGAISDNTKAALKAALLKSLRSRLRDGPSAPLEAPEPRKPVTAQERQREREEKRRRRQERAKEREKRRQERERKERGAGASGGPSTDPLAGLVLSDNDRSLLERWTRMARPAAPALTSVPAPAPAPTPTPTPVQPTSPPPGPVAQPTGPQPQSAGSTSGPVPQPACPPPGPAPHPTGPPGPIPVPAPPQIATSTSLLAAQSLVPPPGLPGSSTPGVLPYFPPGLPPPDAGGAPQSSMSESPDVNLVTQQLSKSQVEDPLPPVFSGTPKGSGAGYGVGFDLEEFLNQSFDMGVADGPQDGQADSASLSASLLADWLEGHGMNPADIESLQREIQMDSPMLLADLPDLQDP
# Experimental: as §1, §2, §3, §4, §5
# [3] = tested on: TCF/LEF reporter in HEK293-pBARL cells; assay: cells; settings: Homo sapiens, HEK293, read-out: TCF/LEF EC50 (μM)
# Experimental: HEK293-pBARL cells were derived from HEK293 cells and they stably expressed a firefly-luciferase reporter gene driven by a promoter containing 12 copies of TCF/LEF binding sequences. These cells were maintained in DMEM and supplemented with 10% FBS and 1% penicillin-streptomycin (Invitrogen). Reporter gene assays were conducted in anti-biotic free media. […] These cells also contained a renilla-luciferase reporter gene driven by the ubiquitous EF1α promoter as a control. HEK293-pBarl reporter cell lines were seeded into 384-well culture plates (Corning) at 6000 cells/well. 24 hours after plating, cells were treated overnight with relevant compounds and assayed using DualGlo assay kit (Promega). Luminescent intensities were read by EnVision (PerkinElmer, Waltham, Mass.). Firefly luciferase intensity is normalized by renilla luciferase intensity.
# Cells were cultured in 384 well plates to appropriate density (40 μl total plating volume). 24 hours after plating, cells were treated with 100 nl compounds. 24 hours after incubation with compounds (48 hours after plating), assay reagents were prepared by mixing Luciferase Assay solution with Luciferase substrate and Stop & Glo solution to Stop & Glo substrate (extra reagents can be aliquoted and frozen for future use and are stable for at least one freeze/thaw cycle). […] The plate was spun down and 10 minutes were allowed for signal stabilization. Luciferase signal on the Perkin Elmer EnVision using the following parameters: Distance between plate & detector (mm)=0.2; Measurement time(s)=0.1; Glow (CT2) correction factor=0. Once the initial data is secure, a volume of Stop & Glo was added equal to each well equal to the volume of Luciferase reagent added above (If 10 μl Luciferase Reagent was added, 10 μl Stop & Glo was also added). The plate was spun down and 10 minutes were allowed for signal stabilization. The plate was read on the EnVision using the same parameters detailed above.
# CDK4 = CDK4 (Homo sapiens (Human), UniProt P11802); assay: Single point inhibition at 10 μM (Carna), CDK4; assay type: biochemical
# Experimental: as §2, §3, §4, §5
# BRAF = BRAF (Homo sapiens (Human), UniProt P15056); assay: Single point inhibition at 10 μM (Carna), BRAF; assay type: biochemical
# Experimental: as §2, §3, §4, §5
# CDK5 = CDK5 (Homo sapiens (Human), UniProt Q00535); assay: Single point inhibition at 10 μM (Carna), CDK5; assay type: biochemical
# Sequence of CDK5 (Q00535 whole entry): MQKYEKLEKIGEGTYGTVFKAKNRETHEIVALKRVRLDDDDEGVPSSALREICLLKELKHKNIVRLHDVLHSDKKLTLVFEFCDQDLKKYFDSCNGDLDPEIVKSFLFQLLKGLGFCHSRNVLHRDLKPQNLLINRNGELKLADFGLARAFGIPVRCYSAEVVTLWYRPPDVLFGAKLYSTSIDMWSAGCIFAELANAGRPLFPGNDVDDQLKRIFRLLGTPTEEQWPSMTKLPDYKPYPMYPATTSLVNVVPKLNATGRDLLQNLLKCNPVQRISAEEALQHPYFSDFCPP
# Sequence of CDK5 (Q15078 99-307 partner): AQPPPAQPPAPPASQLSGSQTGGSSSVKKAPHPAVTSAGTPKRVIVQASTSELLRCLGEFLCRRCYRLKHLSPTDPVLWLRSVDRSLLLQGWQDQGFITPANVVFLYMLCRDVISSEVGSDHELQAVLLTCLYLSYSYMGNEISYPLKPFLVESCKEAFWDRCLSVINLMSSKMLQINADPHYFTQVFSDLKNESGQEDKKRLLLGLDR
# Experimental: as §1, §2, §3, §4, §5
# MAP2K6 = MAP2K6 (Homo sapiens (Human), UniProt P52564); assay: Single point inhibition at 10 μM (Carna), MAP2K6; assay type: biochemical
# Sequence of MAP2K6 (P52564 whole entry): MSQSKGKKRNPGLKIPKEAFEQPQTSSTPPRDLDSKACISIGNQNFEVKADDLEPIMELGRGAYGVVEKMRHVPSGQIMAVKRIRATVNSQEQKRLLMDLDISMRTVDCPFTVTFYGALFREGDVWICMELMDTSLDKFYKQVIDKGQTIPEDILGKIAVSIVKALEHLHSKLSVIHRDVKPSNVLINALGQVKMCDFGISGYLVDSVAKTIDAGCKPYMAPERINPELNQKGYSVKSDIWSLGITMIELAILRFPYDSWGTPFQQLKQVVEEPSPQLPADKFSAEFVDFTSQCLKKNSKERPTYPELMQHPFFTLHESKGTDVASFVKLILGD
# Experimental: as §1, §2, §3, §4, §5
# HIPK4 = HIPK4 (Homo sapiens (Human), UniProt Q8NE63); assay: Single point inhibition at 10 μM (Carna), HIPK4; assay type: biochemical
# Sequence of HIPK4 (Q8NE63 whole entry): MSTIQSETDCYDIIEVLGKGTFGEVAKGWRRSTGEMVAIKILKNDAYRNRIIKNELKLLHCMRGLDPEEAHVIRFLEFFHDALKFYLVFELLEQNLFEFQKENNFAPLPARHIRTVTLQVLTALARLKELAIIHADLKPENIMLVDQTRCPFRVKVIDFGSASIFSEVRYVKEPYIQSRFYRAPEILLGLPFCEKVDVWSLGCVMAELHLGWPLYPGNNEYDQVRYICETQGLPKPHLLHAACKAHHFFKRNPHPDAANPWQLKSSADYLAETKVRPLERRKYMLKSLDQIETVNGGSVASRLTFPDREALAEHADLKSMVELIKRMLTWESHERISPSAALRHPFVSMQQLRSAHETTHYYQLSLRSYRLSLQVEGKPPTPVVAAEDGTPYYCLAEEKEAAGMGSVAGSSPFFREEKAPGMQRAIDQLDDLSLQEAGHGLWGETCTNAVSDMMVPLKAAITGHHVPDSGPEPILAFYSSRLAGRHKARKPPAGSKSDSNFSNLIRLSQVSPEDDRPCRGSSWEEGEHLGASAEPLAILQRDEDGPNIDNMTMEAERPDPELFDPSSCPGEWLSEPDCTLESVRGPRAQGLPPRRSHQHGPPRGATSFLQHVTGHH
# Experimental: as §1, §2, §3, §4, §5
# DYKR1B = DYKR1B (Homo sapiens (Human), UniProt Q9Y463); assay: Single point inhibition at 10 μM (Carna), DYKR1B; assay type: biochemical
# Experimental: as §2, §3, §4, §5
# MELK = MELK (Homo sapiens (Human), UniProt Q14680); assay: Single point inhibition at 10 μM (Carna), MELK; assay type: biochemical
# Experimental: as §1, §2, §3, §4, §5
# CDK2 = CDK2 (Homo sapiens (Human), UniProt P24941); assay: Single point inhibition at 10 μM (kinase screen), CDK2; assay type: biochemical
# Experimental: as §2, §3, §4, §5
# CDK2/CycE1 = CDK2/CycE1 (Homo sapiens (Human), UniProt P24941); assay: Single point inhibition at 10 μM (Carna), CDK2/CycE1; assay type: biochemical
# Experimental: as §2, §3, §4, §5
# MLK3 = MLK3 (Homo sapiens (Human), UniProt Q16584); assay: Single point inhibition at 10 μM (Carna), MLK3; assay type: biochemical
# Experimental: as §1, §2, §3, §4, §5
# GSK3β = GSK3β (Homo sapiens (Human), UniProt P49841); assay: biochemical; settings: read-out: % Inhibition at 10 μM, GSK3β
# Experimental: as §2, §3, §4, §5
# CK1g1 = CK1g1 (Homo sapiens (Human), UniProt Q9HCP0); assay: Single point inhibition at 10 μM (Carna), CK1g1; assay type: biochemical
# Experimental: as §2, §3, §4, §5
# GSK3α = GSK3α (Homo sapiens (Human), UniProt P49840); assay: biochemical; settings: read-out: % Inhibition at 10 μM, GSK3α
# Sequence of GSK3α (P49840 whole entry): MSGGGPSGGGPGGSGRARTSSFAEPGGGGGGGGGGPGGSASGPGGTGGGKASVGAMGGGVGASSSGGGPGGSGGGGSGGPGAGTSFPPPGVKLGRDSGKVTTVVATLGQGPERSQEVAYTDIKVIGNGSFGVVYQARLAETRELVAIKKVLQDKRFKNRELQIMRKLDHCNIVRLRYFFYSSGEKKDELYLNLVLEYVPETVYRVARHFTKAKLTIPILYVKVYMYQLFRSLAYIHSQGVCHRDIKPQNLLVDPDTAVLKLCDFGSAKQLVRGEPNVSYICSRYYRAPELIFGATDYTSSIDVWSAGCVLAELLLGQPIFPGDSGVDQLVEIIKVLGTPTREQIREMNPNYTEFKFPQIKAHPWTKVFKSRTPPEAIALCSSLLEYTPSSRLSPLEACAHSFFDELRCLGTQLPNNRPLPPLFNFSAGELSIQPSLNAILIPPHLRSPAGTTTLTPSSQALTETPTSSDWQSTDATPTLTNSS
# Experimental: as §2, §3, §4, §5
# CK1g3 = CK1g3 (Homo sapiens (Human), UniProt Q9Y6M4); assay: Single point inhibition at 10 μM (Carna), CK1g3; assay type: biochemical
# Sequence of CK1g3 (Q9Y6M4 whole entry): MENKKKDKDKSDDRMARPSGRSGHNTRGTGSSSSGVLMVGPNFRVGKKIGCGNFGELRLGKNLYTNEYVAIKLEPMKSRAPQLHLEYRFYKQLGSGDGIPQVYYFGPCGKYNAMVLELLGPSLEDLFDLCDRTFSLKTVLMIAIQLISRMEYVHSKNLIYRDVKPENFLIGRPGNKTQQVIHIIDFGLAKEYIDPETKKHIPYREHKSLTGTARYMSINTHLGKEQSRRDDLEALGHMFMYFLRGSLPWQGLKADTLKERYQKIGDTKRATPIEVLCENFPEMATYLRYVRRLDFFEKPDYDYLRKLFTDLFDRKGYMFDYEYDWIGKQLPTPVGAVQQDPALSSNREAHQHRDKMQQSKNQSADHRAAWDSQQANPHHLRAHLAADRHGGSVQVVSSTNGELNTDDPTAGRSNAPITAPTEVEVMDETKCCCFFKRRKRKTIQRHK
# Experimental: as §2, §3, §4, §5
# [4] = tested on: β-catenin nuclear translocation in U2-OS cells; assay: β-Catenin nuclear localization assay; assay type: cell-based; settings: Homo sapiens, U2OS, read-out: beta-Catenin translocation EC50
# Experimental: β-Catenin Nuclear Localization Assay
# U2-OS cells stably expressing two complimentary β-galactosidase fragments (one part on β-Catenin and the other constitutively expressed in the cell nucleus) were maintained in DMEM F12 supplemented with 10% FBS. When β-catenin translocates to the nucleus, the complimentary fragments form a complete β-galactosidase, the amount of which is then quantified by β-galactosidase activity (DiscoveRx). Cells were seeded in a 384-well CulturPlate (Perkin Elmer, Boston, Mass.) with 10,000 per well in 20 μL DMEM F12 containing 10% FCS, 100 U/ml penicillin and 100 μg/mL streptomycin. After overnight incubation at 37° C., cells were stimulated with 100 nL test compound/well and then returned to the incubator for 6 h. Cells were disrupted using 12 μL substrate-containing lysis buffer from the PathHunter Detection Kit in the formulation specified by the supplier (DiscoveRx). Plates were incubated in the dark for 1 h at room temperature before measurement of β-galactosidase activity (luminescence) on an EnVision plate reader (PerkinElmer, Waltham, Mass.).
# panel of 311 kinases = assay: Single point kinome-wide profile (Carna Biosciences); assay type: biochemical; settings: panel of 311 kinases
# Experimental: as §2, §3, §4, §5
# Sequence of PKR (P19525 whole entry): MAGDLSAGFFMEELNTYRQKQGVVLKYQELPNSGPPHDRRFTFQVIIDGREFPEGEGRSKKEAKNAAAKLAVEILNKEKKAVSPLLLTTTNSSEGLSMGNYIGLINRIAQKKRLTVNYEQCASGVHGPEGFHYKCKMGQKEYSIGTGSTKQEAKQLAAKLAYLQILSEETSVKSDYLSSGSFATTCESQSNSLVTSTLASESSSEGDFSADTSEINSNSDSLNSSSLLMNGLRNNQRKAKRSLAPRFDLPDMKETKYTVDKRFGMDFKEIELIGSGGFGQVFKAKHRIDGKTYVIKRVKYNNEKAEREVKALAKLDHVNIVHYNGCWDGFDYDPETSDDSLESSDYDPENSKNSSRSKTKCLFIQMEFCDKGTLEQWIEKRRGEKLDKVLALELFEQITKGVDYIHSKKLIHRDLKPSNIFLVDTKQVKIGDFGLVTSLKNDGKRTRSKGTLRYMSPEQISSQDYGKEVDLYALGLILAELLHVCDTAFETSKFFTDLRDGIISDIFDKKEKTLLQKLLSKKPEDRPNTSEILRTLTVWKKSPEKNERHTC
# Sequence of CLK1 (P49759 whole entry): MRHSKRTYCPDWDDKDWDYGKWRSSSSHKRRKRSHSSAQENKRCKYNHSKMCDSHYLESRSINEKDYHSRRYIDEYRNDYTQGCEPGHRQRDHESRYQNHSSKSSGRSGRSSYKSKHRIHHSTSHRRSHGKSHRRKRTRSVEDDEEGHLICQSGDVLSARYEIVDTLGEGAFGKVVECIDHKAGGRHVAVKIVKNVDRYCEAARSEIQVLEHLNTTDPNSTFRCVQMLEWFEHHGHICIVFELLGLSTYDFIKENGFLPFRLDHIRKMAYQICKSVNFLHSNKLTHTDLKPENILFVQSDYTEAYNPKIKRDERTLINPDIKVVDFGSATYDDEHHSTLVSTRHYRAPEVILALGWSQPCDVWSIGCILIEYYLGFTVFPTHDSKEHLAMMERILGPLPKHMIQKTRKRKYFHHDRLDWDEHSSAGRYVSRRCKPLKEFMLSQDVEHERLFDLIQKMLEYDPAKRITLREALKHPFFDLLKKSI
structure (smiles),measurement,setting,value
"Cc1c[nH]c(-c2cnc(NCCNc3ccc(C#N)cn3)nc2-c2ccc(Cl)cc2Cl)n1 [CHIR99021, reference compound]",inhibition at 10 µM,PKR,57.1%
same,inhibition at 10 µM,CLK1,> 50%
same,inhibition at 10 µM,PLK1,> 50%
same,Microsomal Stability,[1],M: 4%
same,pIC50,[2],6.36
same,inhibition at 10 µM,CDK2/CycA2,79.3%
same,inhibition at 10 µM,RSK3,53.6%
same,inhibition at 10 µM,Erk5,> 50%
same,EC50,[3],6 µM
same,inhibition at 10 µM,CDK4,65.3%
same,inhibition at 10 µM,BRAF,53.8%
same,inhibition at 10 µM,CDK5,> 50%
same,inhibition at 10 µM,MAP2K6,65.3%
same,inhibition at 10 µM,HIPK4,55.5%
same,inhibition at 10 µM,DYKR1B,70.5%
same,inhibition at 10 µM,MELK,53.5%
same,inhibition at 10 µM,CDK2,> 50%
same,inhibition at 10 µM,CDK2/CycE1,67.2%
same,inhibition at 10 µM,MLK3,52.7%
same,inhibition at 10 µM,GSK3β,99.9%
same,inhibition at 10 µM,CK1g1,85.8%
same,inhibition at 10 µM,GSK3α,99.9%
same,inhibition at 10 µM,CK1g3,70.5%
same,pEC50,[4],5.00
same,number of kinases inhibited greater than 50% at 10 μM,panel of 311 kinases,21 kinases
